Assay results from US20020010210A1, “PHARMACEUTICAL PREPARATION AND METHOD FOR TREATING CANCER” (priority 1997, published 2002).

How the values were obtained:
[1] = tested on: bovine aortic endothelial BAE-2 cells; assay: Intracellular ascorbic acid cumulative amount in BAE-2 cells (Example 2); format: cell-based; conditions: 5 μM in culturing medium, cultured 20 hours
Experimental: About 6×10^5 bovine aortic endothelial BAE-2 cells (available from Hiroshima Prefecture University) were sowed on a 60 mmφ plate and cultured in a minimum essential culturing medium containing 20% dialyzed bovine fetus serum (available from Moregate) for 2 hours. After displacing with the same culturing medium containing 5 μM (in the case of magnesium ascorbic acid-2-phosphate, 50 μM) of ascorbic acid or a derivative thereof, the cells were further cultured for 20 hours.

[2] = tested on: spontaneous breast cancer rat cells (SST-2); assay: Lung metastasis of implanted SST-2 cells in SHR rats (Example 3); format: in vivo; conditions: 35 days after implantation; for Number of Metastasis Colonies (average), Peroral Administration: 1 mg/rat perorally from day of implantation to day 34; for Number of Metastasis Colonies (average), Subcutaneous Injection: 1 mg/rat subcutaneous injection from day of implantation to day 34
Experimental: 1×100,000 spontaneous breast cancer rat cells (SST-2) were subcutaneously implanted into the back of a rat (SHR rat) (5 rats per group) suffering from spontaneous hypertension. After 35 days, the rats were sacrificed, and the lung weight and the number of colonies formed were measured to examine the degree of metastasis of SST-2 to the lung. The compounds shown in Tables 3 and 4 each was administered perorally or through subcutaneous injection in a dose of 1 mg/rat over the period from the day of implantation to 34 days after implantation. The number of colonies formed was compared with that in the control group not subjected to any treatment, to examine metastasis to the lung.

[3] = tested on: normal human adult mamma epidermis keratinocyte; assay: Intracellular ascorbic acid cumulative amount in keratinocytes (Example 1); format: cell-based; conditions: addition amount 2 μM, cultured 20 hours; difference to culture without addition
Experimental: About 6×10^5 cells of a normal human adult mamma epidermis keratinocyte (available from Kurashiki Boseki KK) were sowed on a 60 mm plate and cultured in a culturing medium (manufactured by Krashiki Boseki KK) for the increase of serum-free epidermis keratinocyte for 2 hours. After displacing with the same culturing medium having added thereto from 2 to 50 μM of ascorbic acid or a derivative thereof, the cells were further cultured for 20 hours. The cells were collected by trypsin treatment and the number of cells was counted using a Coulter Counter Model DN (trade name, manufactured by Coulter Electronics). The cells thus collected were washed with Hank's equilibrium salt solution, pulverized in an ultrasonic homgenizer, filtered through a Mol-cut II (UFP1LCC) (trade name, produced by Nippon Milipore KK), analyzed by HPLC using Shodex ODSpak F411A column (trade name, produced by Showa Denko KK), and the amount of ascorbic acid and derivatives thereof were measured to determine the intracellular cumulative amount.
As a control, culturing was performed in the same manner as above except for not adding ascorbic acid or a derivative thereof, and the amount of intracellular ascorbic acid was quantitatively determined.

Row | Intracellular Cumulative Amount [1] | Intracellular Cumulative Amount [3] | Molecule | Number of Metastasis Colonies (average), Peroral Administration [2] | Number of Metastasis Colonies (average), Subcutaneous Injection [2]
1 | 0.0055 Pmole/cell |  | CCCCCCCC/C=C\CCCCCCCC(=O)OC[C@H](O)[C@H]1OC(=O)C(OP(=O)(O)O)=C1O [L-Ascorbic acid 2-phosphate-6-oleate] | 29.4 | 2.8
2 | 0.0012 Pmole/cell |  | O=C1O[C@H]([C@@H]2COC(c3ccccc3)O2)C(O)=C1O (stereo partly drawn) [L-Ascorbic acid-5,6-O-benzylidene] | 85.8 | 84.2
3 | 0.0068 Pmole/cell | 0.0040 Pmole/cell | Sodium L-ascorbic acid 2-phosphate-6-palmitate | 30.6 | 1.6
4 | 0.0025 Pmole/cell |  | O=C1O[C@H]([C@@H](O)COC(=O)c2ccccc2)C(O)=C1OP(=O)(O)O [L-Ascorbic acid 2-phosphate-6-benzoate] | 80.0 | 64.4
5 | 0.0042 Pmole/cell |  | CCCCCCCCCCCC(=O)OC[C@H](O)[C@H]1OC(=O)C(OP(=O)(O)O)=C1O [L-Ascorbic acid 2-phosphate-6-laurate] | 48.0 | 26.8
6 | 0.0070 Pmole/cell | 0.0033 Pmole/cell | Magnesium L-ascorbic acid 2-phosphate-6-laurate |  | 
7 | <0.0003 Pmole/cell |  | O=C1O[C@H]([C@@H](O)CO)C(O)=C1OC1O[C@H](CO)[C@@H](O)[C@H](O)[C@H]1O (stereo partly drawn) [2-O-D-Glucopyranosil-L-ascorbic acid] | 87.2 | 90.6
8 | 0.0068 Pmole/cell |  | CCCCC/C=C\C/C=C\C/C=C\C/C=C\CCCC(=O)OC[C@H](O)[C@H]1OC(=O)C(OP(=O)(O)O)=C1O [L-Ascorbic acid 2-phosphate-6-arachidonate] | 31.4 | 1.2
9 | 0.0007 Pmole/cell |  | O=C1OC(C2COC(c3cccc([N+](=O)[O-])c3)O2)C([O-])=C1O.[Na+] [Sodium 5,6-(3-nitro)benzylidene-L-ascorbate] | 88.6 | 84.2
10 | 0.0034 Pmole/cell |  | CCCCCCCCCCCCCCCCCC(=O)OC[C@H](O)[C@H]1OC(=O)C(OP(=O)(O)O)=C1O [L-Ascorbic acid 2-phosphate-6-stearate] | 14.2 | 8.2
11 |  |  | CCCCCCCCCCCCCCCC(=O)OC[C@H](O)[C@H]1OC(=O)C(OC(=O)CCCCCCCCCCCCCCC)=C1O [L-Ascorbic acid-2,6-dipalmitate] | 89.8 | 86.6
12 | 0.0072 Pmole/cell |  | CCCCCCCCCCCCCCCC(=O)OC[C@H](O)[C@H]1OC(=O)C(OP(=O)(O)O)=C1O [L-Ascorbic acid 2-phosphate-6-palmitate] | 34.2 | 2.4

Row | Molecule | Intracellular Cumulative Amount [1] | Intracellular Cumulative Amount [3] | Number of Metastasis Colonies (average), Peroral Administration [2] | Number of Metastasis Colonies (average), Subcutaneous Injection [2]
13 | CC(CCC(C(=O)OC1=C(O)C(=O)O[C@@H]1[C@@H]1COC(c2ccccc2)O1)C(C)CC(C)(C)C)CC(C)(C)C (some centres unmarked) [5,6-O-Benzylidene-3-O-[5,7,7-trimethyl-2-(1,3,3-timethylbutyl)]octanoylascorbic acid] | 0.0008 Pmole/cell |  | 87.4 | 89.6
